According to patent US7872046B2, “Crystalline form of a (3S)-aminomethyl-5-methyl-hexanoic acid prodrug and methods of use” (Xenoport, Inc., priority 2008, dated 2011):

Tests used:
[1] = dosed either orally or directly into the colon of a mammal; cited from earlier work
[2] = Pregabalin pharmacokinetics following intracolonic administration in monkeys (Example 12); format: in vivo, cynomologus monkeys; details: 10 mg-eq PG/kg
Protocol: The pharmacokinetics of pregabalin and crystalline calcium (3S)-{[(1R)-isobutanoyloxyethoxy]carbonylaminomethyl}-5-methyl-hexanoate hydrate following intracolonic administration in monkeys was determined.
A group of four male cynomologus monkeys received an intracolonic dose of pregabalin or crystalline calcium (3S)-{[(1R)-isobutanoyloxyethoxy]carbonylaminomethyl}-5-methyl-hexanoate hydrate (10 mg-eq pregabalin/kg). A 7-day wash-out period was allowed between treatments. Blood samples (300 μL) were collected from all animals prior to dosing and at intervals up to 24 hours post-dosing and immediately quenched in tubes containing K2EDTA to prevent hydrolysis. Two aliquots (100 μL each) were immediately quenched with 300 μL methanol. All quenched blood samples were subsequently analyzed for (3S)-{[(1R)-isobutanoyloxyethoxy]carbonylaminomethyl}-5-methyl-hexanoate free acid and pregabalin using LC-MS/MS.
Pregabalin was obtained from Teva (Peteh Tiqva, Israel). Crystalline calcium (3S)-{[(1R)-isobutanoyloxyethoxy]carbonylaminomethyl}-5-methyl-hexanoate hydrate was synthesized from commercial pregabalin according to Examples 1-6.
Cynomologus monkeys (body weight approximately 2.5 kg to 5.0 kg) were used in the study. Monkeys were fasted overnight and for the first 4 hours after dose administration. Water was provided ad libitum. For intracolonic administration, pregabalin or crystalline calcium (3S)-{[(1R)-isobutanoyloxyethoxy]carbonylaminomethyl}-5-methyl-hexanoate hydrate was suspended in 0.5% methylcellulose/0.1% Tween 80 in sodium phosphate buffer at pH 7.4. Blood samples were analyzed and pharmacokinetic analysis performed as described in Example 14.
(§1) Blood concentration data for all analytes were analyzed by non-compartmental methods using WinNonlin (WinNonlin™ Software, version 5.2, Pharsight Corp. Mountain View, Calif.). Non-compartmental analysis was performed on individual profiles in each animal. All concentration values below the limit of quantitation (BLQ) were treated as 0 (zero) for the pharmacokinetic analysis. Low concentration values at predose were treated as BLQ. Nominal sample collection time points were used for the calculation of pharmacokinetic parameters. All concentration data were plotted using SigmaPlot (SigmaPlot™, Version 9.0, Systat Software Inc., Richmond, Calif.).
(§2) The maximum concentration (Cmax) and time to Cmax(Tmax) were obtained by observation. The apparent elimination half-life (T1/2) was obtained by linear regression of three or more log-transformed data points in the terminal phase. The area under the concentration versus time curve (AUClast) was obtained by the linear trapezoidal method using concentration data up to the last quantifiable concentration. The AUC value extrapolated to infinity (AUCinf) was calculated as: AUCinf=AUClast+Clast/λz where tlast is the time of the last quantifiable concentration (Clast) and λz is the rate constant of the apparent terminal elimination phase.
(§3) The bioavailability (F) of pregabalin after extravascular dosing of pregabalin or prodrug was calculated by comparison to data following intravenous administration of pregabalin as follows: F(%)=100×(AUCex/Doseex)/(AUCiv/Doseiv) where AUCex is the area under the pregabalin concentration versus time curve in μg×hr/mL following extravascular administration of pregabalin or crystalline calcium (3S)-{[(1R)-isobutanoyloxyethoxy]carbonylaminomethyl}-5-methyl-hexanoate hydrate formulation; Doseex is the extravascular dose expressed in mg-equivalents of pregabalin/kg body weight; AUCiv is the area under the pregabalin concentration versus time curve in μg×hr/mL following intravenous administration of pregabalin; and Doseiv is the intravenous dose expressed in mg-equivalents of pregabalin/kg body weight.

[3] = Pregabalin pharmacokinetics following administration of oral tablet formulations in monkeys (Example 14); format: in vivo, cynomolgus monkeys
Protocol: One group of four male cynomolgus monkeys was used for the study. The mean body weight was approximately 2.9 kg at the start of the study and increased over the 9 months of the study to approximately 3.4 kg. The animals were fasted overnight and for the first 4 hours of the study after administration of each test formulation. Water was provided ad libitum.
All formulations were evaluated in a single group of four fasted male cynomolgus monkeys with at least 5 days washout between treatments. The IR tablet formulation was administered at 75 mg-eq pregabalin (1 tablet per animal). Three different SR tablet formulations were dosed orally at either 75 mg-eq. pregabalin or 69 mg-eq. pregabalin (1 tablet each per animal).
Blood samples were obtained from all animals at intervals up to 24 hours post-dosing. Approximately 0.3 mL of blood was collected in pre-chilled K2EDTA tubes containing 0.3 mL of methanol. Within 30 minutes, the blood samples were stored at or below −70° C.
Quenched blood samples were frozen and stored at −20° C. prior to analysis. Samples were analyzed by a sensitive and specific LC-MS/MS method for simultaneous determination of (3S)-{[(1R)-isobutanoyloxyethoxy]carbonylaminomethyl}-5-methyl-hexanoate free acid and pregabalin concentrations.
as §1, §2
as §3, with “weight. […]” for “weight.”

[4] = Hygroscopicity of solid forms; format: physicochemical; details: solid material
[5] = IR tablet, 75 mg-eq PG (22.4 mg-eq PG/kg)
[6] = SR1 tablet, 75 mg-eq PG (22.3 mg-eq PG/kg)
[7] = SR2 tablet, 69 mg-eq PG (21.1 mg-eq PG/kg)
[8] = SR tablet, 75 mg-eq PG (21.7 mg-eq PG/kg)

Compound: CC(C)C[C@H](CNC(=O)OC(C)OC(=O)C(C)C)CC(=O)O (stereo partly drawn) [(1), (3S)-{[1-Isobutanoyloxyethoxy]carbonylaminomethyl}-5-methyl-hexanoic acid]
- bioavailability as pregabalin [1]: high bioavailability

Compound: CC(C)C[C@H](CN)CC(=O)O [Pregabalin, (3S)-aminomethyl-5-methyl-hexanoic acid]
- AUC(0-inf) ([2]; male, monkey, whole blood, 10 mg/kg, read-out: AUCinf, pregabalin in blood, mean (SD)): 3100 ng·h/mL
- AUC(0-t) ([2]; male, monkey, whole blood, 10 mg/kg, read-out: AUClast, pregabalin in blood, mean (SD)): 2200 ng·h/mL
- Cmax ([2]; male, monkey, whole blood, 10 mg/kg, read-out: Cmax, pregabalin in blood, mean (SD)): 240 ng/mL
- half-life ([2]; male, monkey, whole blood, 10 mg/kg, read-out: T1/2, pregabalin in blood, mean (SD) (converted)): 6.15 h
- Tmax ([2]; male, monkey, whole blood, 10 mg/kg, read-out: Tmax, pregabalin in blood, mean (SD)): 0.5 h
- bioavailability ([2]; male, monkey, whole blood, other: intracolonic, 8 mg/kg, read-out: F, bioavailability of pregabalin relative to IV pregabalin at 8 mg/kg, mean (SD)): 2.7%
- F, bioavailability (based on AUClast) relative to AUCinf of intravenous pregabalin at 8 mg/kg, mean (SD) ([3]; LYRICA capsules, 150 mg-eq PG (52.4 mg-eq PG/kg)): 41 (9) %
- AUC(0-t) ([3]; male, cynomolgus monkey, whole blood, LYRICA capsules, 150 mg-eq PG (52.4 mg-eq PG/kg), read-out: AUClast, pregabalin in blood, mean (SD)): 188000 ng·h/mL
- Cmax ([3]; male, cynomolgus monkey, whole blood, LYRICA capsules, 150 mg-eq PG (52.4 mg-eq PG/kg), read-out: Cmax, pregabalin in blood, mean (SD)): 21900 ng/mL
- Tmax ([3]; male, cynomolgus monkey, whole blood, LYRICA capsules, 150 mg-eq PG (52.4 mg-eq PG/kg), read-out: Tmax, pregabalin in blood, mean (SD)): 3 h

Compound: calcium (3S)-{[(1R)-isobutanoyloxyethoxy]carbonylaminomethyl}-5-methyl-hexanoate hydrate [(3a)]
- AUCinf, pregabalin in blood, mean (SD) [2]: 55.9 (12.1) μg × hr/mL
- AUClast, pregabalin in blood, mean (SD) [2]: 54.5 (11.3) μg × hr/mL
- Cmax, pregabalin in blood, mean (SD) [2]: 7.54 (1.89) μg/mL
- T1/2, pregabalin in blood, mean (SD) [2]: 4.17 (1.15) hr
- Tmax, pregabalin in blood, mean (SD) [2]: 0.88 (0.25) hr
- AUClast, pregabalin in blood, mean (SD) [3, 5]: 163 (25) μg × hr/mL
- Cmax, pregabalin in blood, mean (SD) [3, 5]: 19.3 (2.4) μg/mL
- F, bioavailability (based on AUClast) relative to AUCinf of intravenous pregabalin at 8 mg/kg, mean (SD) [3, 5]: 82 (13) %
- Tmax, pregabalin in blood, mean (SD) [3, 5]: 2.0 (1.4) hr
- AUClast, pregabalin in blood, mean (SD) [3, 6]: 104 (16) μg × hr/mL
- Cmax, pregabalin in blood, mean (SD) [3, 6]: 7.2 (1.2) μg/mL
- F, bioavailability (based on AUClast) relative to AUCinf of intravenous pregabalin at 8 mg/kg, mean (SD) [3, 6]: 52 (6) %
- Tmax, pregabalin in blood, mean (SD) [3, 6]: 8.0 (6.9) hr
- AUClast, pregabalin in blood, mean (SD) [3, 7]: 70 (1) μg × hr/mL
- Cmax, pregabalin in blood, mean (SD) [3, 7]: 5.0 (0.3) μg/mL
- F, bioavailability (based on AUClast) relative to AUCinf of intravenous pregabalin at 8 mg/kg, mean (SD) [3, 7]: 35 (9) %
- Tmax, pregabalin in blood, mean (SD) [3, 7]: 14.0 (3.5) hr
- AUClast, pregabalin in blood, mean (SD) [3, 8]: 137 (40) μg × hr/mL
- Cmax, pregabalin in blood, mean (SD) [3, 8]: 13.5 (3.2) μg/mL
- F, bioavailability (based on AUClast) relative to AUCinf of intravenous pregabalin at 8 mg/kg, mean (SD) [3, 8]: 70 (16) %
- Tmax, pregabalin in blood, mean (SD) [3, 8]: 3.2 (1.5) hr
- hygroscopicity [4]: hygroscopic
